These results are taken from patent EP0536419B1, “TRICYCLIC TRIAZOLE DERIVATIVES, PRODUCTION AND USE THEREOF” (TORAY INDUSTRIES, INC., priority 1991, dated 1992).

Molecules are shown by their SMILES. Where a name gives a salt, the structure may show the parent alone. Read-outs that look alike come from different tables or passages of the source.

One assay has as its target rabbit platelets (Oryctolagus cuniculus, UniProt G1TEI7). Briefly: in vitro platelet agglutination inhibition test (PAF-induced). The assay is classed as cell-based. The note with it: rabbit platelet-rich plasma, PAF final concentration 10 ng/ml, 37°C.
A further assay deals with T1, PAF receptor (Oryctolagus cuniculus, UniProt G1TEI7).
T1 construct: Cell membrane fraction of rabbit platelets was prepared; from tissue; host or cells: rabbit platelets (cell membrane fraction)
T1 sequence (G1TEI7 1-342): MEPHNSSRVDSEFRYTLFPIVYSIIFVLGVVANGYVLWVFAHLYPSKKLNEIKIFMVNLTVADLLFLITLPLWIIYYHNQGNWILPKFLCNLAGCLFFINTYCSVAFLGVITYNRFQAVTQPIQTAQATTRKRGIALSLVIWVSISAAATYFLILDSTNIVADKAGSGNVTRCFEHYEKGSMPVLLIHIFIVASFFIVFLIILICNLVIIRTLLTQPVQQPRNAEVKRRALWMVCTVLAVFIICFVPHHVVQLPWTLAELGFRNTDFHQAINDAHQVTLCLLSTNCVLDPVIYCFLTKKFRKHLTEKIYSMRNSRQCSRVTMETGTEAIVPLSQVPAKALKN
The assay is described as follows: Binding test using [3H]-PAF (PAF receptor binding test). Also noted: species or system rabbit. The note with it: rabbit platelet membrane fraction, [3H]-PAF 0.4 nM, 25°C, 60 minutes; read-out: Receptor Binding Inhibition IC50 (converted).

Where [1] appears, read: read-out: PAF-Induced Platelet Aggregation IC50 (converted).

Sequence of rabbit platelets (G1TEI7 1-342): as above
Experimental for PAF receptor: Binding Test Using [^3H]-PAF (PAF receptor binding test)
Cell membrane fraction of rabbit platelets was prepared in accordance with the method by Hwang et al (Biochemistry; 22; 4756, (1983)). In 10 mM Tris buffer containing 0.25% bovine serum albumin, 50 mg of this membrane fraction was suspended and tritium-labelled PAF [^3H]-PAF; 0.4 nM) and a test compound were added thereto. After incubating the resulting mixture at 25°C for 60 minutes, the mixture was subjected to filtration through a filter paper made of glass fibers. The filter paper was washed with cold Tris buffer three times and then transferred to a vial. A scintillator was added thereto and the dose of radioactivity was measured with a liquid scintillation counter. The inhibition rate (binding ability) of the test compound was calculated according to the following equation and IC50 values were determined by interpolation. Inhibition Rate (%) = {1 - [((A - B))/((C - B))]} x 100 [formula] (wherein A represents amount bound in the presence of the compound, B represents amount bound by non-specific binding which is the dose of [^3H]-PAF bound radioactivity in the presence of 1 µM of PAF, and C represents total amount bound which is the dose of [^3H]-PAF bound radioactivity.
As a control agent, WEB2086 (Japanese Laid-open Patent Application (Kokai) No. 65-176591) disclosed as a PAF-antagonist was used.
Experimental for rabbit platelets: To determine the PAF-antagonizing property of the compounds, the PAF-induced agglutination of rabbit platelets in vitro is utilized. To obtain platelet-rich plasma (PRP), venous blood is taken from rabbit auricular vein into a plastic centrifugal tube containing 1.0% sodium citrate solution. The ratio of sodium citrate solution to blood is 1:10. The obtained citrate-containing blood is centrifuged at 70 x g (625 rpm) at room temperature for 20 minutes and the PRP in the upper layer is transferred to another plastic tube. The remaining lower layer is further centrifuged at 1500 x g (2800 rpm) for 10 minutes and the platelet poor plasma (PPP) in the upper layer is recovered. The platelet agglutination is measured by using aggregometer commercially available from Niko Bioscience, Inc. An aliquote of the PRP is poured into a cubette for measurement. Immediately thereafter, aspirin, creatinin phosphate and creatinin phosphokinase are added to final concentrations of 0.1 mM, 7 mM and 45 U/ml, respectively. Then a solution of a test compound is added and the resulting mixture is stirred at 37°C for 2 minutes. To the resultant, PAF (final concentration: 10 ng/ml) is added to induce platelet aggregation. The platelet aggregation rate is calculated from the relative maximum value in each aggregation curve taking the transmittance of PPP as the maximum aggregation (100% aggregation). Using the aggregation rate when physiological saline was added as a control, the inhibition rate which was the ratio of the aggregation rate when the test compound was added to the control was calculated and the IC50 values were determined by interpolation.

On to `Cc1nnc2n1-c1ccccc1N(CCCN1CCC(C(O)(c3ccccc3)c3ccc(N(C)C)cc3)CC1)C2` (stereo not drawn) [Compound 131], for which the IC50 on rabbit platelets (setting [1]) is 242 nM; at PAF receptor it was 83.8 nM.

`Cc1nnc2n1-c1ccccc1N(CCCN1CCC(=C(c3ccc(F)cc3)c3ccc(F)cc3)CC1)C2` [Compound 77, 4,5-dihydro-1-methyl-5-[3-[4-[bis(4-fluorophenyl)methylene]piperidin-1-yl]propyl][1,2,4]triazolo[4,3-a] quinoxaline]: the figures for the 50% inhibitory concentration (IC50) on rabbit platelets (setting [1]) and at PAF receptor were 141 nM and 190 nM, respectively.

As for `Cc1nnc2n1-c1ccccc1N(CCN1CCN(C(c3ccccc3)c3ccccc3)CC1)C2` [Compound 43, 4,5-dihydro-1-methyl-5-[3-[4-(diphenylmethyl)piperazin-1-yl]ethyl][1,2,4]triazolo[4,3-a]quinoxaline fumaric acid salt], the concentration for half-maximal inhibition (IC50) at PAF receptor was 6460 nM.

Turning to `Cc1nnc2n1-c1ccccc1N(CCCN1CCC(n3c(=O)[nH]c4ccccc43)CC1)C2` [Compound 81, 4,5-dihydro-1-methyl-5-[3-[4-(2-keto-1-benzimidazolynyl)piperidin-1-yl]propyl][1,2,4]triazolo[4,3-a] quinoxaline], the IC50 at rabbit platelets (setting [1]) was 1530 nM; on PAF receptor, 3380 nM.

With `Cc1nnc2n1-c1ccccc1N(CCCN1CCC(C(O)(c3ccc(F)cc3)c3ccc(F)cc3)CC1)C2C` (stereo not drawn) [Compound 90, 4,5-dihydro-1,4-dimethyl-5-[3-[4-[hydroxybis(4-fluorophenyl)methyl]piperidin-1-yl]propyl][1,2,4]triazolo[4,3-a] quinoxaline], the half-inhibitory concentration (IC50) was 1030 nM on rabbit platelets (setting [1]) and 1820 nM on PAF receptor.

On to `Cc1nnc2n1-c1ccccc1N(CCCN1CCC(=C(c3cccc(Cl)c3)c3cccc(Cl)c3)CC1)C2` [Compound 155, 4,5-dihydro-1-methyl-5-[3-[4-[bis(3-chlorophenyl)methylene]piperidin-1-yl]propyl] [1,2,4]triazolo[4,3,a]quinoxaline], for which the values for the IC50 at rabbit platelets (setting [1]) and at PAF receptor were 2200 nM and 132 nM, respectively.

Turning to `Cc1nnc2n1-c1ccccc1N(CCCN1CCC(=C(c3cccs3)c3cccs3)CC1)C2` [Compound 165, 4,5-dihydro-1-methyl-5-[3-[4-[bis(2-thienyl)methylene]piperidin-1-yl]propyl] [1,2,4]triazolo[4,3,a]quinoxaline], the half-maximal inhibitory concentration (IC50) on rabbit platelets (setting [1]) is 1520 nM; at PAF receptor, 820 nM.

Regarding `Cc1nnc2n1-c1ccccc1N(CCCN1CCN(C(c3ccccc3)c3ccc(Cl)cc3)CC1)C2` (stereo not drawn) [Compound 69, 4,5-dihydro-1-methyl-5-[3-[4-[(4-chlorophenyl)phenylmethyl]piperazin-1-yl]propyl][1,2,4]triazolo[4,3-a]quinoxaline], the IC50 at PAF receptor was 702 nM.

As for `Cc1nnc2n1-c1ccccc1N(CCCN1CCC(=C3c4ccccc4COc4ccccc43)CC1)C2` [Compound 88, 4,5-dihydro-1-methyl-5-[3-[4-(6,11-dihydrodibenzo[b.e]oxepin-11-ylidene)piperidin-1-yl]propyl][1,2,4]triazolo[4,3-a] quinoxaline], the IC50 is 1710 nM on rabbit platelets (setting [1]) and 675 nM at PAF receptor.

In the case of `COc1ccc(C(=C2CCN(CCCN3Cc4nnc(C)n4-c4ccccc43)CC2)c2ccc(OC)cc2)cc1` [Compound 148, 4,5-dihydro-1-methyl-5-[3-[4-[bis(4-methoxyphenyl)methylene]piperidin-1-yl]propyl] [1,2,4]triazolo[4,3,a]quinoxaline], the IC50 was 597 nM on rabbit platelets (setting [1]) and 54.1 nM on PAF receptor.

On to `Cc1nnc2n1-c1ccccc1N(CCCN1CCC(OC(c3ccccc3)c3ccccc3)CC1)C2` [Compound 76, 4,5-dihydro-1-methyl-5-[3-[4-(diphenylmethoxy)piperidin-1-yl]propyl][1,2,4]triazolo[4,3-a] quinoxaline tartaric acid salt], for which the concentration for half-maximal inhibition (IC50) on PAF receptor is 202 nM.

Regarding `Cc1nnc2n1-c1ccccc1N(CCCN1CCC(c3c[nH]c4ccc(Cl)cc34)CC1)C2` [Compound 55, 4,5-dihydro-1-methyl-5-[3-[4-(5-chloro-3-indolyl)piperidin-1-yl]propyl] [1,2,4]triazolo[4,3-a]quinoxaline], at PAF receptor, the half-maximal inhibitory concentration (IC50) is 803 nM.

With `Cc1nnc2n1-c1ccccc1N(CCCN1CC=C(c3c[nH]c4ccccc34)CC1)C2` [Compound 63, 4,5-dihydro-1-methyl-5-[3-[1,2,3,6-tetrahydro-4-(3-indolyl)pyridin-1-yl]propyl] [1,2,4]triazolo[4,3-a]quinoxaline], the concentration for half-maximal inhibition (IC50) at rabbit platelets (read-out: PAF-Induced Platelet Aggregation IC50) was 10400 nM.

As to `CCc1nnc2n1-c1ccccc1N(CCCN1CCC(=C(c3ccccc3)c3ccccc3)CC1)C2` [Compound 92, 1-ethyl-4,5-dihydro-5-[3-[4-(diphenylmethylene)piperidin-1-yl]propyl][1,2,4]triazolo[4,3-a] quinoxaline], the IC50 at rabbit platelets (setting [1]) is 1350 nM.

`Cc1nnc2n1-c1ccccc1N(CCCN1CCC(C(O)(c3ccccc3)c3ccccc3)CC1)C2` [Compound 74, 4,5-dihydro-1-methyl-5-[3-[4-(hydroxydiphenylmethyl)piperidin-1-yl]propyl][1,2,4]triazolo[4,3-a] quinoxaline tartaric acid salt]: the IC50 at PAF receptor is 357 nM.

In the case of `Cc1ccc2[nH]cc(C3CCN(CCCN4Cc5nnc(C)n5-c5ccccc54)CC3)c2c1` [Compound 58, 4,5-dihydro-1-methyl-5-[3-[4-(5-methyl-3-indolyl)piperidin-1-yl]propyl] [1,2,4]triazolo[4,3-a]quinoxaline], the IC50 at PAF receptor was 636 nM.

Regarding `Cc1nnc2n1-c1ccccc1N(CCCN1CCC(c3c[nH]c4ccc(Br)cc34)CC1)C2` [Compound 56, 4,5-dihydro-1-methyl-5-[3-[4-(5-bromo-3-indolyl)piperidin-1-yl]propyl] [1,2,4]triazolo[4,3-a]quinoxaline], the IC50 on PAF receptor was 950 nM.

For `Cc1nnc2n1-c1ccccc1N(CCCN1CCC(c3c[nH]c4ccc(F)cc34)CC1)C2` [Compound 57, 4,5-dihydro-1-methyl-5-[3-[4-(5-fluoro-3-indolyl)piperidin-1-yl]propyl] [1,2,4]triazolo[4,3-a]quinoxaline], at PAF receptor, the IC50 is 2700 nM.

For `Cc1nnc2n1-c1ccc(F)cc1N(CCCN1CCC(c3c[nH]c4ccccc34)CC1)C2` [Compound 66, 7-fluoro-4,5-dihydro-1-methyl-5-[3-[4-(3-indolyl)piperidin-1-yl]propyl][1,2,4]triazolo[4,3-a]quinoxaline], the IC50 at rabbit platelets (setting [1]) was 4270 nM.

In the case of `Cc1nnc2n(CCN3CCN(C(c4ccccc4)c4ccccc4)CC3)c3ccccc3n12` [Compound 191, 3-methyl-9-[3-[4-(diphenylmethyl)piperazin-1-yl]ethyl]-9H-[1,2,4]triazolo[4,3-a]benzimidazole fumaric acid salt], the 50% inhibitory concentration (IC50) at PAF receptor was 7100 nM.

For `Cc1nnc2n1-c1ccccc1N(CCCN1CCN(C(c3ccccc3)c3ccccc3)CC1)C2` [Compound 44, 4,5-dihydro-1-methyl-5-[3-[4-(diphenylmethyl)piperazin-1-yl]propyl][1,2,4]triazolo[4,3-a]quinoxaline], at PAF receptor, the IC50 is 1670 nM.

Take `COc1ccc2[nH]cc(C3CCN(CCCN4Cc5nnc(C)n5-c5ccccc54)CC3)c2c1` [Compound 54, 4,5-dihydro-1-methyl-5-[3-[4-(5-methoxy-3-indolyl)piperidin-1-yl]propyl] [1,2,4]triazolo[4,3-a]quinoxaline]: the half-inhibitory concentration (IC50) at PAF receptor was 1160 nM.
